Results taken from paper PMC9496282, “Analysis of Phosphatase Activity in a Droplet-Based Microfluidic Chip” (Biosensors, 2022).

Target: T1, dual specificity phosphatase 22 (DUSP22) (Homo sapiens, UniProt Q9NRW4)
T1 construct: recombinant DUSP22 from pET-28a(+)-DUSP22, purified from E. coli BL21(DE3)
T1 sequence (Q9NRW4 2-184): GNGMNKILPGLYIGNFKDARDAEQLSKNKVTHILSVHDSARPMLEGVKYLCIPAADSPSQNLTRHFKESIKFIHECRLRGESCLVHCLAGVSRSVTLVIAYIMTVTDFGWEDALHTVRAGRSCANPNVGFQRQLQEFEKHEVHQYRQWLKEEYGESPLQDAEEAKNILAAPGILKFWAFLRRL
Test: fluorescent 3-OMFP phosphatase inhibition assay in droplet microfluidic chip (microwell plate IC50 […])
Type: biochemical

SMILES: CCN(N=O)c1ccc(O)c(O)c1 [ethyl-3,4-dephostatin]
- IC50: 5.79 ± 1.09 µM
